# Target: Leukotriene B4 receptor (Cavia porcellus)
# Experiment: Inhibition of [3H]LTB4 binding to Leukotriene B4 receptor in the guinea pig spleen membranes
row,Structure (SMILES),IC50
1,CC(C)(CCCCOc1cc(-c2ccccc2)c2ccccc2n1)C(=O)O,183 nM

# Target: Leukotriene B4 receptor (Cavia porcellus)
# Experiment: as above
# Remark: another data set of the same source
row,Structure (SMILES),IC50
1,O=C(O)CCCCCOc1cc(-c2ccccc2)c2ccccc2n1,700 nM
2,CC(C)(CCCCOc1cc(-c2ccc(N)cc2)c2ccccc2n1)C(=O)O,40 nM
3,CC(C)(CCCCOc1cc(-c2ccc(Cl)cc2)c2ccccc2n1)C(=O)O,15 nM
4,O=C(O)CCCCCOc1cc(-c2ccc(Cl)cc2)c2ccccc2n1,30 nM
5,CC(C)(CCCCOc1cc(-c2ccccc2)c2ccccc2n1)c1nnn[nH]1,400 nM
6,CC(C)(CCCCOc1cc(-c2ccc(C(F)(F)F)cc2)c2ccccc2n1)C(=O)O,300 nM
7,O=C(O)CCCCCCOc1cc(-c2ccccc2)c2ccccc2n1,1800 nM
8,c1ccc(-c2cc(OCCCCCc3nnn[nH]3)nc3ccccc23)cc1,500 nM
9,COc1cccc(-c2cc(OCCCCC(C)(C)C(=O)O)nc3ccccc23)c1,300 nM
10,Cc1ccc(-c2cc(OCCCCC(C)(C)C(=O)O)nc3ccccc23)cc1,30 nM
11,CC(C)(CCCCOc1cc(-c2ccccc2)c2cc(Cl)ccc2n1)C(=O)O,2500 nM
12,CC(C)(CCCCOc1cc(-c2ccc(Cl)cc2)c2ccccc2n1)c1nnn[nH]1,30 nM
13,CC(CCCCOc1cc(-c2ccccc2)c2ccccc2n1)C(=O)O (stereo unspecified),550 nM
14,CC(C)(CCCCOc1cc(-c2ccc([N+](=O)[O-])cc2)c2ccccc2n1)C(=O)O,150 nM
15,CC(C)(CCCCOc1cc(-c2cccc(Cl)c2)c2ccccc2n1)C(=O)O,1100 nM

# From BindingDB's records for doi:10.1021/jm00101a007 (Centre De Recherche De Vitry-Alfortville, 1992)
